Among the data in patent US20090012091A1, “Oximide derivatives and their therapeutical application” (KinaGen, Inc., priority 2007, published 2009) are IC50 values, retold here.

Where only a bound is given, the exact number is not on record here.

For the test, the target named is T1, B-raf kinase (Homo sapiens, UniProt P15056).
T1 construct: made in house; host or cells: Sf9 insect cells (baculovirus)
Nature of the test: in vitro Raf Kinase Assay (33P-phosphate incorporation into GST-kdMEK). Conditions: human recombinant Raf protein, substrate GST-kdMEK, 33P-ATP, 25° C., 90 minutes; read-out: IC50 (concentration of test compound required to inhibit 50% of the B-raf kinase activity). It counts as biochemical. The procedure: Activity of human recombinant Raf protein was assessed in vitro by assay of the incorporation of radiolabelled phosphate to recombinant MAP kinase (MEK), a known physiologic substrate of Raf. Catalytically active human recombinant Raf protein was obtained by purification from sf9 insect cells infected with a human Raf recombinant baculovirus expression vector.
Method: Standard assay conditions of Raf catalytic activity utilized […] of GST-kdMBK, 10 µM ATP and 2 uCi ^33P-ATP, 50 mM MOPS, 0.1 mM EDTA, 0.1M sucrose, 10 mM MgCl2 plus 0.1% dimethylsulphoxide (containing compound where appropriate) in a total reaction volume of 30 ul. Reactions were incubated at 25° C. for 90 minutes and reactions terminated by addition of EDTA to a final concentration of […]. 10 ul of reaction was spotted to P30 phosphocellulose paper and air dried. Following four washes in ice cold 10% trichloroacetic acid, 0.5% phosphoric acid, papers were air dried prior to addition of liquid scintillant and measurement of radioactivity in a scintillation counter. The % inhibition of the B-raf kinase activity is calculated and plotted in order to determine the concentration of test compound required to inhibit 50% of the B-raf kinase activity (IC50).

T1 sequence (P15056 whole entry): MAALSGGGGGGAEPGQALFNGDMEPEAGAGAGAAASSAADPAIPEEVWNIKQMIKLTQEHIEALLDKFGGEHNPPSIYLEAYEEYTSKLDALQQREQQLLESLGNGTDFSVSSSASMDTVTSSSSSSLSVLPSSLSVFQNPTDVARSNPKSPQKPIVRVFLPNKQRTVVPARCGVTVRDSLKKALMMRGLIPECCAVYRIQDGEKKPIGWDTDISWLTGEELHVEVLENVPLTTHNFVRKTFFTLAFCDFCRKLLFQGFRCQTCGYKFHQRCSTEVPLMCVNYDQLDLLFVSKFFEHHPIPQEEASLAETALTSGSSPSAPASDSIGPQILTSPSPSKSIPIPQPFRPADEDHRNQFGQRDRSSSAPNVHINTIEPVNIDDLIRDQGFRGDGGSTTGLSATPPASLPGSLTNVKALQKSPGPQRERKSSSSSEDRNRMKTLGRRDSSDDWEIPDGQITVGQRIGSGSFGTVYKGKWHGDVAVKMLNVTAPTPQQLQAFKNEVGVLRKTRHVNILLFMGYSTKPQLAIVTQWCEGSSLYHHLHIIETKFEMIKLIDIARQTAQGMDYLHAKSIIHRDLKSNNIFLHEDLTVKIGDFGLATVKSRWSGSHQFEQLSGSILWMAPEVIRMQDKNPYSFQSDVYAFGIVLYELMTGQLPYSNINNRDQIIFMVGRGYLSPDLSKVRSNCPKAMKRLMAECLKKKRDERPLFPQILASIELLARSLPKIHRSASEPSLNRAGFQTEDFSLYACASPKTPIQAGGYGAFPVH

With `O=C(Nc1ccccc1)Nc1ccc(Oc2ccnc(C(=O)NOC3CCCCC3)c2)cc1` [Compound 18, N-(cyclohexyloxy)-4-(4-(3-phenylureido)phenoxy)picolinamide], the IC50 is less than 1000 nM. On to `O=C(Nc1ccc(Oc2ccnc(C(=O)NOC3CCCC3)c2)cc1)Nc1ccc(Cl)c(Cl)c1` [Compound 17, N-(cyclopentyloxy)-4-(4-(3-(3,4-dichloro-phenyl)ureido)phenoxy)picolinamide], for which the IC50 was less than 1000 nM. Consider `CCONC(=O)c1cc(Oc2ccc(NC(=O)Nc3ccc(Cl)c(C(F)(F)F)c3)cc2)ccn1` [Compound 7, 4-(4-(3-(4-chloro-3-(trifluoromethyl)phenyl)urei-do)phenoxy)-N-ethoxypicolinamide], for which the IC50 was less than 1000 nM. Turning to `CCNC(=O)c1cc(Oc2ccc(NC(=O)c3ccc(Cl)c(Cl)c3)cc2)ccn1` [Compound 21, 4-(4-(3,4-dichlorobenzamido)phenoxy)-N-ethylpicolinamide], the IC50 is less than 10000 nM. For `CONC(=O)c1cc(Oc2ccc(NC(=O)Nc3ccc(Cl)c(C(F)(F)F)c3)cc2)ncn1` [Compound 26, 6-(4-(3-(4-chloro-3-(trifluoro-methyl)phenyl)ureido)phenoxy)-N-methoxypyrimidine-4-carboxamide] the value was less than 1000 nM; for `O=C(Nc1ccc(Oc2cc(C(=O)NCCO)ncn2)cc1)Nc1ccc(Cl)c(C(F)(F)F)c1` [Compound 22, 6-(4-(3-(4-chloro-3-(trifluoro-methyl)phenyl)ureido)phenoxy)-N-(2-hydroxyethyl)pyrimidine-4-carboxamide], less than 1000 nM. Take `CNC(=O)c1cc(Oc2ccc(NC(=O)Nc3ccc(Cl)cc3)cc2)ncn1` [Compound 24, 6-(4-(3-(4-chlorophenyl)ureido)phenoxy)-N-methylpyrimidine-4-carboxamide]: the IC50 is less than 1000 nM.

On to `CONC(=O)c1cc(Oc2ccc(NC(=O)Nc3ccc(Cl)c(Cl)c3)cc2)ccn1` [Compound 14, 4-(4-(3-(3,4-dichlorophenyl)ureido)phenoxy)-N-methoxypicolinamide], for which the IC50 is less than 1000 nM. Consider `CN(C)CCONC(=O)c1cc(Oc2ccc(NC(=O)Nc3ccc(Cl)c(C(F)(F)F)c3)cc2)ccn1` [Compound 9, 4-(4-(3-(4-chloro-3-(trifluoromethyl)phenyl)urei-do)phenoxy)-N-(2-(dimethylamino)ethoxy)picolinamide], for which the IC50 was less than 1000 nM. Consider `CONC(=O)c1cc(Oc2ccc(NC(=O)Nc3cccc(C(F)(F)F)c3)cc2)ccn1` [Compound 13, N-methoxy-4-(4-(3-(3-(trifluoromethyl)phenyl)urei-do)phenoxy)picolinamide], for which the IC50 was less than 1000 nM. As for `O=C(Nc1ccc(Oc2ccnc(C(=O)O)c2)cc1)Nc1ccc(Cl)c(C(F)(F)F)c1` [Compound 4, 4-(4-(3-(4-chloro-3-(trifluoromethyl)phenyl)ureido)phenoxy)picolinic acid], the IC50 is less than 10000 nM. With `CN(C)CCNC(=O)c1cc(Oc2ccc(NC(=O)Nc3ccc(Cl)c(C(F)(F)F)c3)cc2)ncn1` [Compound 27, 6-(4-(3-(4-chloro-3-(trifluoro-methyl)phenyl)ureido)phenoxy)-N-(2-(dimethylamino)ethyl)pyrimidine-4-carboxamide], the IC50 was less than 1000 nM. As for `CN(C)C(=O)CONC(=O)c1cc(Oc2ccc(NC(=O)Nc3ccc(Cl)c(C(F)(F)F)c3)cc2)ccn1` [Compound 11, 4-(4-(3-(4-chloro-3-(trifluoromethyl)phenyl)urei-do)phenoxy)-N-(2-(dimethylamino)-2-oxoethoxy)picolinamide], the IC50 was less than 1000 nM.

Consider `CONC(=O)c1cc(Oc2ccc(NC(=O)Nc3ccccc3)cc2)ccn1` [Compound 15, N-methoxy-4-(4-(3-phenylureido)phenoxy)picolinamide], for which the IC50 is less than 1000 nM.

As for `CCCONC(=O)c1cc(Oc2ccc(NC(=O)Nc3ccc(Cl)c(C(F)(F)F)c3)cc2)ccn1` [Compound 6, 4-(4-(3-(4-chloro-3-(trifluoromethyl)phenyl)urei-do)phenoxy)-N-propoxypicolinamide], the IC50 was less than 1000 nM.

With `CNC(=O)c1cc(Oc2ccc(NC(=O)Nc3ccc(Cl)c(C(F)(F)F)c3)cc2)ncn1` [Compound 23, 6-(4-(3-(4-chloro-3-(trifluoro-methyl)phenyl)ureido)phenoxy)-N-methylpyrimidine-4-carboxamide], the IC50 was less than 1000 nM. Turning to `CONC(=O)c1cc(Oc2ccc(NC(=O)Nc3ccc(OC)c(OC)c3)cc2)ccn1` [Compound 16, 4-(4-(3-(3,4-dimethoxyphenyl)ureido)phenoxy)-N-methoxypicolinamide], the IC50 is less than 1000 nM.

On to `CONC(=O)c1cc(Oc2ccc(NC(=O)Nc3ccc(Cl)c(C(F)(F)F)c3)cc2)ccn1` [Compound 5, 4-(4-(3-(4-chloro-3-(trifluoromethyl)phenyl)ureido)phenoxy)-N-methoxypicolinamide], for which the IC50 is less than 1000 nM. Regarding `CCONC(=O)c1cc(Oc2ccc(NC(=O)Nc3ccc(Cl)c(C(F)(F)F)c3)cc2)ncn1` [Compound 25, 6-(4-(3-(4-chloro-3-(trifluoro-methyl)phenyl)ureido)phenoxy)-N-ethoxypyrimidine-4-carboxamide], the IC50 is less than 1000 nM. In the case of `CC(C)(C)OC(=O)c1cc(Oc2ccc(NC(=O)Nc3ccc(Cl)c(C(F)(F)F)c3)cc2)ccn1` [Compound 3, tert-butyl 4-(4-(3-(4-chloro-3-(trifluoromethyl)phenyl)ureido)phenoxy)picolinate], the IC50 was less than 10000 nM. As for `COc1ccc(NC(=O)Nc2ccc(Oc3ccnc(C(=O)NOC4CCC4)c3)cc2)cc1OC` [Compound 19, N-cyclobutoxy-4-(4-(3-(3,4-dimethoxyphenyl)urei-do)phenoxy)picolinamide], the IC50 is less than 1000 nM. For `CCNC(=O)c1cc(Oc2ccc(NC(=O)c3ccc(Cl)cc3)cc2)ccn1` [Compound 20, 4-(4-(4-chloro-benzamido)phenoxy)-N-ethylpicolinamide] the value was less than 10000 nM.

With `CNC(=O)c1ncnc(Oc2ccc(NC(=O)Nc3ccc(Cl)c(C(F)(F)F)c3)cc2)n1` [Compound 28, 4-(4-(3-(4-chloro-3-(trifluoro-methyl)phenyl)ureido)phenoxy)-N-methyl-1,3,5-triazine-2-carboxamide], the IC50 was less than 1000 nM. In the case of `CCN(CC)C(=O)CONC(=O)c1cc(Oc2ccc(NC(=O)Nc3ccc(Cl)c(C(F)(F)F)c3)cc2)ccn1` [Compound 10, 4-(4-(3-(4-chloro-3-(trifluoromethyl)phenyl)urei-do)phenoxy)-N-(2-(diethylamino)-2-oxoethoxy)picolinamide], the IC50 was less than 1000 nM.

`CONC(=O)c1cc(Oc2ccc(NC(=O)Nc3ccc(Cl)cc3)cc2)ccn1` [Compound 12, 4-(4-(3-(4-chlorophenyl)ureido)phenoxy)-N-methoxypicolinamide]: the IC50 is less than 1000 nM. In the case of `CCN(CC)CCONC(=O)c1cc(Oc2ccc(NC(=O)Nc3ccc(Cl)c(C(F)(F)F)c3)cc2)ccn1` [Compound 8, 4-(4-(3-(4-chloro-3-(trifluoromethyl)phenyl)urei-do)phenoxy)-N-(2-(diethylamino)ethoxy)picolinamide] it was less than 1000 nM.
